Experimental data as given in US9322066B2, “Predictors for cancer treatment” (priority 2011, dated 2016).

System: relapsed or refractory, rituximab-naive or -sensitive follicular B-cell NHL
Test: Time to next anti-lymphoma therapy, Vc-R vs rituximab study, by biomarker
Format: in vivo, human
Parameters: Median, Time to Next Anti-Lymphoma Therapy / Time to Next Anti-Lymphoma Therapy, Median: unit not given here
Description: Non-Hodgkin lymphoma (NHL) encompasses several unique malignant lymphoid disease entities that vary in clinical behavior, morphologic appearance, immunologic, and molecular phenotype. […] A randomized, open-label, active-controlled, multicenter, multinational, prospective study to compare the efficacy and safety of the combination of bortezomib and rituximab (Vc-R) to single-agent rituximab in subjects who have relapsed or refractory, rituximab-naive or -sensitive follicular B-cell NHL was performed.
Subjects were centrally randomized to Treatment Groups A (Vc-R) or B (rituximab) in a 1:1 ratio taking into account the following stratification factors: • Follicular Lymphoma International Prognostic Index (FLIPI) score (low [0 or 1 factor], intermediate [2 factors], high [≧3 factors]); • Prior rituximab therapy (yes, no); • Time since last dose of anti-lymphoma therapy (≦1 year, >1 year); • Region (United States/Canada, European Union, Rest of World).
The following clinical endpoints were included in the analysis within each treatment group and an overall comparison was made with the biomarker-related endpoints: Progression-free survival, defined as the interval between the date of randomization and the date of progressive disease (PD) or death, whichever is first reported in the ITT population; overall survival; overall response rate (complete response [CR]+CR unconfirmed [CRu]+partial response [PR]); overall CR rate (CR+CRu); duration of response; time to next anti-lymphoma therapy; and treatment free interval.

[1] = PSMB5/L206M: C/C, High Tumor Burden
[2] = PSMB5/L206M: C/C, ≦65 years old
[3] = PSMB5/R24C: C/C, >1 year since last anti-lymphoma treatment
[4] = PSMB5/R24C: C/T, Ann Arbor Stage IV
[5] = PSMB5/R24C: C/T, High Tumor Burden
[6] = PSMB6/A234D: C/C, >1 year since last anti-lymphoma treatment
[7] = PSMB6/A234D: C/C, Ann Arbor Stage IV
[8] = PSMB6/A234D: C/C, European Union
[9] = PSMB6/A234D: C/C, High Tumor Burden
[10] = PSMB6/A234D: C/C, ≦65 years old
[11] = PSMB6/P107A: C/C, >1 year since last anti-lymphoma treatment
[12] = PSMB6/P107A: C/C, Ann Arbor Stage IV
[13] = PSMB6/P107A: C/C, High Tumor Burden
[14] = PSMB6/P107A: C/C, ≦65 years old
[15] = PSMB8/G8R: G/G, >1 year since last anti-lymphoma treatment
[16] = PSMB8/G8R: G/G, Ann Arbor Stage IV
[17] = PSMB8/G8R: G/G, High Tumor Burden
[18] = PSMB8/R141C: C/C, >1 year since last anti-lymphoma treatment
[19] = PSMB8/R141C: C/C, Ann Arbor Stage IV
[20] = PSMB8/R141C: C/C, European Union
[21] = PSMB8/R141C: C/C, High Tumor Burden
[22] = PSMB8/R141C: C/C, ≦65 years old
[23] = PSMB8/V182M: G/G, >1 year since last anti-lymphoma treatment
[24] = PSMB8/V182M: G/G, Ann Arbor Stage IV
[25] = PSMB8/V182M: G/G, European Union
[26] = PSMB8/V182M: G/G, High Tumor Burden
[27] = PSMB8/V182M: G/G, ≦65 years old
[28] = PSMB9/G9E: G/G, >1 year since last anti-lymphoma treatment
[29] = PSMB9/G9E: G/G, Ann Arbor Stage IV
[30] = PSMB9/G9E: G/G, High Tumor Burden
[31] = PSMB9/V32I: C/C, 5 Prior Lines of Therapy
[32] = PSMB9/V32I: C/C, >1 year since last anti-lymphoma treatment
[33] = PSMB9/V32I: C/C, Ann Arbor Stage IV
[34] = PSMB9/V32I: C/C, High Tumor Burden

Which “Time to Next Anti-Lymphoma Therapy, Median” value (shortened to “Time … Median”) (PSMB5/L206M: C/C, European Union) does the source give for rituximab here?
The value was 675.

And the “Time to Next Anti-Lymphoma Therapy, Evt/N” value (“Time … Evt/N” for short) [1]?
The value was 108/147.

And the “Time … Median” value [1]?
The value was 396.

What about the “Time … Evt/N” value (PSMB5/L206M: C/C, No Subgroup) of the same substance?
Its value is 173/276.

What about the “Time … Median” value (PSMB5/L206M: C/C, No Subgroup) of the same substance?
The value was 546.

And the “Time … Evt/N” value [2]?
Its value is 130/198.

What about the “Time … Median” value [2] of the same substance?
The value was 489.

What about the “Time … Evt/N” value [3] of the same substance?
The value was 81/137.

And the “Time … Median” value [3]?
Its value is 649.

And the “Time … Evt/N” value (PSMB5/R24C: C/C, No Subgroup)?
The value was 147/235.

What about the “Time … Median” value (PSMB5/R24C: C/C, No Subgroup) of the same substance?
The value was 546.

What about the “Time … Evt/N” value (PSMB5/R24C: C/C, ≦65 years old) of the same substance?
The value was 113/170.

What about the “Time … Median” value (PSMB5/R24C: C/C, ≦65 years old) of the same substance?
The value was 489.

And the “Time … Evt/N” value [4]?
Its value is 11/15.

What about the “Time … Median” value [4] of the same substance?
Its value is 421.

And the “Time … Evt/N” value [5]?
Its value is 19/21.

What about the “Time … Median” value [5] of the same substance?
The value was 317.

And the “Time … Evt/N” value [6]?
The value was 98/165.

And the “Time … Median” value [6]?
The value was 688.

What about the “Time … Evt/N” value [7] of the same substance?
Its value is 86/127.

And the “Time … Median” value [7]?
Its value is 457.

What about the “Time … Evt/N” value [8] of the same substance?
Its value is 75/119.

What about the “Time … Median” value [8] of the same substance?
Its value is 675.

What about the “Time … Evt/N” value [9] of the same substance?
The value was 108/147.

What about the “Time … Median” value [9] of the same substance?
Its value is 396.

And the “Time … Evt/N” value (PSMB6/A234D: C/C, No Subgroup)?
Its value is 173/276.

And the “Time … Median” value (PSMB6/A234D: C/C, No Subgroup)?
The value was 546.

And the “Time … Evt/N” value [10]?
The value was 130/198.

What about the “Time … Median” value [10] of the same substance?
The value was 489.

What about the “Time … Evt/N” value [11] of the same substance?
Its value is 95/159.

What about the “Time … Median” value [11] of the same substance?
The value was 702.

What about the “Time … Evt/N” value [12] of the same substance?
Its value is 84/124.

And the “Time … Median” value [12]?
The value was 485.

And the “Time … Evt/N” value [13]?
The value was 104/140.

What about the “Time … Median” value [13] of the same substance?
The value was 380.

And the “Time … Evt/N” value (PSMB6/P107A: C/C, No Subgroup)?
The value was 167/265.

And the “Time … Median” value (PSMB6/P107A: C/C, No Subgroup)?
Its value is 550.

And the “Time … Evt/N” value [14]?
Its value is 125/189.

And the “Time … Median” value [14]?
The value was 504.

And the “Time … Evt/N” value [15]?
Its value is 91/155.

What about the “Time … Median” value [15] of the same substance?
Its value is 702.

What about the “Time … Evt/N” value [16] of the same substance?
Its value is 80/120.

And the “Time … Median” value [16]?
Its value is 457.

What about the “Time … Evt/N” value (PSMB8/G8R: G/G, European Union) of the same substance?
Its value is 70/111.

What about the “Time … Median” value (PSMB8/G8R: G/G, European Union) of the same substance?
The value was 649.

What about the “Time … Evt/N” value (PSMB8/G8R: G/G, Female) of the same substance?
Its value is 94/160.

And the “Time … Median” value (PSMB8/G8R: G/G, Female)?
Its value is 649.

What about the “Time … Evt/N” value [17] of the same substance?
Its value is 104/140.

What about the “Time … Median” value [17] of the same substance?
Its value is 374.

What about the “Time … Evt/N” value (PSMB8/G8R: G/G, No Subgroup) of the same substance?
The value was 165/264.

What about the “Time … Median” value (PSMB8/G8R: G/G, No Subgroup) of the same substance?
The value was 537.

And the “Time … Evt/N” value (PSMB8/G8R: G/G, ≦65 years old)?
Its value is 123/189.

What about the “Time … Median” value (PSMB8/G8R: G/G, ≦65 years old) of the same substance?
Its value is 504.

And the “Time … Evt/N” value [18]?
Its value is 98/165.

What about the “Time … Median” value [18] of the same substance?
Its value is 688.

What about the “Time … Evt/N” value [19] of the same substance?
Its value is 86/127.

And the “Time … Median” value [19]?
The value was 457.

What about the “Time … Evt/N” value [20] of the same substance?
Its value is 75/119.

And the “Time … Median” value [20]?
Its value is 675.

What about the “Time … Evt/N” value [21] of the same substance?
The value was 108/147.

And the “Time … Median” value [21]?
The value was 396.

What about the “Time … Evt/N” value (PSMB8/R141C: C/C, No Subgroup) of the same substance?
The value was 173/276.

What about the “Time … Median” value (PSMB8/R141C: C/C, No Subgroup) of the same substance?
The value was 546.

What about the “Time … Evt/N” value [22] of the same substance?
The value was 130/198.

And the “Time … Median” value [22]?
Its value is 489.

What about the “Time … Evt/N” value [23] of the same substance?
Its value is 98/165.

What about the “Time … Median” value [23] of the same substance?
The value was 688.

And the “Time … Evt/N” value [24]?
Its value is 86/127.

What about the “Time … Median” value [24] of the same substance?
The value was 457.

What about the “Time … Evt/N” value [25] of the same substance?
The value was 75/119.

And the “Time … Median” value [25]?
The value was 675.

And the “Time … Evt/N” value [26]?
Its value is 108/147.

And the “Time … Median” value [26]?
The value was 396.

What about the “Time … Evt/N” value (PSMB8/V182M: G/G, No Subgroup) of the same substance?
The value was 173/276.

What about the “Time … Median” value (PSMB8/V182M: G/G, No Subgroup) of the same substance?
Its value is 546.

And the “Time … Evt/N” value [27]?
Its value is 130/198.

What about the “Time … Median” value [27] of the same substance?
Its value is 489.

What about the “Time … Evt/N” value [28] of the same substance?
Its value is 97/163.

What about the “Time … Median” value [28] of the same substance?
The value was 688.

What about the “Time … Evt/N” value [29] of the same substance?
The value was 86/126.

And the “Time … Median” value [29]?
The value was 457.

What about the “Time … Evt/N” value (PSMB9/G9E: G/G, European Union) of the same substance?
The value was 75/119.

And the “Time … Median” value (PSMB9/G9E: G/G, European Union)?
The value was 675.

What about the “Time … Evt/N” value [30] of the same substance?
Its value is 107/145.

And the “Time … Median” value [30]?
Its value is 396.

What about the “Time … Evt/N” value (PSMB9/G9E: G/G, No Subgroup) of the same substance?
The value was 172/274.

And the “Time … Median” value (PSMB9/G9E: G/G, No Subgroup)?
Its value is 546.

And the “Time … Evt/N” value (PSMB9/G9E: G/G, ≦65 years old)?
The value was 129/196.

What about the “Time … Median” value (PSMB9/G9E: G/G, ≦65 years old) of the same substance?
The value was 489.

What about the “Time … Evt/N” value (PSMB9/R60H: A/G, Male) of the same substance?
Its value is 22/28.

What about the “Time … Median” value (PSMB9/R60H: A/G, Male) of the same substance?
Its value is 380.

What about the “Time … Evt/N” value [31] of the same substance?
Its value is 7/8.

And the “Time … Median” value [31]?
The value was 228.

What about the “Time … Evt/N” value [32] of the same substance?
Its value is 96/160.

And the “Time … Median” value [32]?
The value was 649.

And the “Time … Evt/N” value [33]?
Its value is 84/123.

And the “Time … Median” value [33]?
The value was 457.

What about the “Time … Evt/N” value [34] of the same substance?
The value was 106/142.

And the “Time … Median” value [34]?
The value was 396.

And the “Time … Evt/N” value (PSMB9/V32I: C/C, ≦65 years old)?
Its value is 127/192.

And the “Time … Median” value (PSMB9/V32I: C/C, ≦65 years old)?
Its value is 489.
